Measured values published in patent US12485169B2, “Compounds” (GREY WOLF THERAPEUTICS LIMITED, priority 2018, dated 2025).

Biological target: T1, Purified ERAP1 (37-941)-10His (ERAP1) (Homo sapiens, UniProt Q9NZ08)
T1 construct: Purified ERAP1 (37-941)-10His (ERAP1)
Test: ERAP1 mediated hydrolysis of an amide substrate (10-mer inhibition assay), biochemical system
Conditions: 10-mer substrate, 23° C., 1 h, excitation 279 nm / emission 355 nm; read-out: IC50 vs Decapeptide WRVYEKC(Dnp)ALK-acid (where Dnp is Dinitrophenyl maleimide) (10-mer)

T1 sequence (Q9NZ08 37-941): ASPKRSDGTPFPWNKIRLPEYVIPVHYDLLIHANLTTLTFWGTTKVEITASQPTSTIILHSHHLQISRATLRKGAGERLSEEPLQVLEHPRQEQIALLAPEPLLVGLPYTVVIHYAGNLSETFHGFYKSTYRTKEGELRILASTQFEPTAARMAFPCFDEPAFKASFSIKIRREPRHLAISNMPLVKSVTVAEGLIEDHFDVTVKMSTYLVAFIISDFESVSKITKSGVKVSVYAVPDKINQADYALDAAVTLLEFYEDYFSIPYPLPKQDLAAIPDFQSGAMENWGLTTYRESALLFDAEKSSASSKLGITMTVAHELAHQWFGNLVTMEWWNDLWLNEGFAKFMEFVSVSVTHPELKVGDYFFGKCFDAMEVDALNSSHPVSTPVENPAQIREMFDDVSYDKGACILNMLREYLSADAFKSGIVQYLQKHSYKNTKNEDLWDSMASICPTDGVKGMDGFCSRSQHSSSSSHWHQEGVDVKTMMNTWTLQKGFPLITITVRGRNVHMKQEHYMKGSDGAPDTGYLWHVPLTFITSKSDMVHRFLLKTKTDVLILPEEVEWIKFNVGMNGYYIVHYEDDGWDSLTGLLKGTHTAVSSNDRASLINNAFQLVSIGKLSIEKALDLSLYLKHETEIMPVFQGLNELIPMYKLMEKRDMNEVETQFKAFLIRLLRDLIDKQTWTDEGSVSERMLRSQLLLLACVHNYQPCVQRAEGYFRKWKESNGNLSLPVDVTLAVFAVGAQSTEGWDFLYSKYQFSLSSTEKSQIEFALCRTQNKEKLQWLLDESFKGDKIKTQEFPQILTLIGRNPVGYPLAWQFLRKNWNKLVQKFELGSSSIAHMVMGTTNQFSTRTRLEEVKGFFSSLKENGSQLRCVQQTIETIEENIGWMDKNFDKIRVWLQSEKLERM

SMILES | IC50 [nM]
CCc1ccc(C(=O)O)cc1S(=O)(=O)Nc1cc(-c2ccno2)ccc1N1CCCCC1 [Example 300, 4-ethyl-3-(N-(5-(isoxazol-5-yl)-2-(piperidin-1-yl)phenyl)sulfamoyl)benzoic acid] | < 500
CCc1ccc(C(=O)O)cc1S(=O)(=O)Nc1cc(-c2cn[nH]c2)ccc1N1CCCCC1 [Example 301, 4-ethyl-3-(N-(2-(piperidin-1-yl)-5-(pyrazol-4-yl)phenyl)sulfamoyl)benzoic acid] | < 500
CCc1ccc(C(=O)O)cc1S(=O)(=O)Nc1cc(-c2cnoc2C)c(C)cc1N1CCCCC1 [Example 303, 4-ethyl-3-(N-(4-methyl-5-(5-methylisoxazol-4-yl)-2-(piperidin-1-yl)phenyl)sulfamoyl)benzoic acid] | < 500
CCc1ccc(C(=O)O)cc1S(=O)(=O)Nc1cc(-c2cnoc2C)c(F)cc1N1CCCCC1 [Example 304, 4-ethyl-3-(N-(4-fluoro-5-(5-methylisoxazol-4-yl)-2-(piperidin-1-yl)phenyl)sulfamoyl)benzoic acid] | < 500
CCc1ccc(C(=O)O)cc1S(=O)(=O)Nc1c(N2CCCCC2)ccc(-c2cnoc2C)c1F [Example 305, 4-ethyl-3-(N-(2-fluoro-3-(5-methylisoxazol-4-yl)-6-(piperidin-1-yl)phenyl)sulfamoyl)benzoic acid] | < 500
CCc1ccc(C(=O)O)cc1S(=O)(=O)Nc1cc(-c2cnoc2C)c(Cl)cc1N1CCCCC1 [Example 306, 4-ethyl-3-(N-(4-Chloro-5-(5-methylisoxazol-4-yl)-2-(piperidin-1-yl)phenyl)sulfamoyl)benzoic acid] | < 500
N#Cc1ccc(N2CCC(F)(F)CC2)c(NS(=O)(=O)c2cc(C(=O)O)ccc2C2CC2)c1 [Example 310, 3-(N-(5-cyano-2-(4,4-difluoropiperidin-1-yl)phenyl)sulfamoyl)-4-cyclopropylbenzoic acid] | < 500
CCc1ccc(C(=O)O)cc1S(=O)(=O)Nc1cc(C#N)ccc1N1CCC[C@@H](F)C1 [Example 311, I-3-(N-(5-cyano-2-(3-fluoropiperidin-1-yl)phenyl)sulfamoyl)-4-ethylbenzoic] | < 500
CCc1ccc(C(=O)O)cc1S(=O)(=O)Nc1cc(S(C)(=O)=O)ccc1N1CCCC(F)(F)C1 [Example 313, 3-(N-(2-(3,3-difluoropiperidin-1-yl)-5-(methylsulfonyl)phenyl)sulfamoyl)-4-ethylbenzoic acid] | < 500
O=C(O)c1ccc(C2CC2)c(S(=O)(=O)Nc2cc(C(F)(F)F)ccc2N2CCC[C@@H](O)C2)c1 [Example 314, I-4-cyclopropyl-3-(N-(2-(3-hydroxypiperidin-1-yl)-5-(trifluoromethyl)phenyl)sulfamoyl)benzoic acid] | < 500
N#CC1CCN(c2ccc(C(F)(F)F)cc2NS(=O)(=O)c2cc(C(=O)O)ccc2C2CC2)CC1 [Example 315, 3-(N-(2-(4-cyanopiperidin-1-yl)-5-(trifluoromethyl)phenyl)sulfamoyl)-4-cyclopropylbenzoic acid] | < 500
N#Cc1ccc(N2CCCC(F)(F)C2)c(NS(=O)(=O)c2cc(C(=O)O)ccc2C2CC2)c1 [Example 316, 3-(N-(5-cyano-2-(3,3-difluoropiperidin-1-yl)phenyl)sulfamoyl)-4-cyclopropylbenzoic acid] | < 500
CCc1ccc(C(=O)O)cc1S(=O)(=O)Nc1cc(S(C)(=O)=O)ccc1N1CCC(F)CC1 [Example 317, 4-ethyl-3-(N-(2-(4-fluoropiperidin-1-yl)-5-(methylsulfonyl)phenyl)sulfamoyl)benzoic acid] | < 500
CS(=O)(=O)c1ccc(N2CCC(F)CC2)c(NS(=O)(=O)c2cc(C(=O)O)ccc2C2CC2)c1 [Example 320, 4-cyclopropyl-3-(N-(2-(4-fluoropiperidin-1-yl)-5-(methylsulfonyl)phenyl)sulfamoyl)benzoic acid] | < 500
CS(=O)(=O)c1ccc(N2CCC[C@@H](F)C2)c(NS(=O)(=O)c2cc(C(=O)O)ccc2C2CC2)c1 [Example 321, I-4-cyclopropyl-3-(N-(2-(3-fluoropiperidin-1-yl)-5-(methylsulfonyl)phenyl)sulfamoyl)benzoic acid] | < 500
N#Cc1ccc(N2CCC(F)CC2)c(NS(=O)(=O)c2cc(C(=O)O)ccc2C2CC2)c1 [Example 322, 3-(N-(5-cyano-2-(4-fluoropiperidin-1-yl)phenyl)sulfamoyl)-4-cyclopropylbenzoic acid] | < 500
N#Cc1cc(NS(=O)(=O)c2cc(C(=O)O)ccc2C2CC2)c(N2CCCCC2)cc1F [Example 324, 3-(N-(5-cyano-4-fluoro-2-(piperidin-1-yl)phenyl)sulfamoyl)-4-cyclopropylbenzoic acid] | < 500
N#Cc1ccc(N2CCC(C#N)CC2)c(NS(=O)(=O)c2cc(C(=O)O)ccc2C2CC2)c1 [Example 326, 3-(N-(5-cyano-2-(4-cyanopiperidin-1-yl)phenyl)sulfamoyl)-4-cyclopropylbenzoic acid] | < 500
N#Cc1cc(NS(=O)(=O)c2cc(C(=O)O)ccc2C2CC2)c(N2CCCCC2)cc1Cl [Example 327, 3-(N-(4-chloro-5-cyano-2-(piperidin-1-yl)phenyl)sulfamoyl)-4-cyclopropylbenzoic acid] | < 500
C[C@@H]1C[C@H](C)CN(c2ccc(C#N)cc2NS(=O)(=O)c2cc(C(=O)O)ccc2C2CC2)C1 [Example 328, 3-(N-(5-cyano-2-(cis-3,5-dimethylpiperidin-1-yl)phenyl)sulfamoyl)-4-cyclopropylbenzoic acid] | < 500
NS(=O)(=O)c1ccc(N2CCCCC2)c(NS(=O)(=O)c2cc(C(=O)O)ccc2C2CC2)c1 [Example 329, 4-cyclopropyl-3-(N-(2-(piperidin-1-yl)-5-sulfamoylphenyl)sulfamoyl)benzoic acid] | < 500
N#Cc1ccc(N2CCCCC2)c(NS(=O)(=O)c2cc(C(=O)O)ccc2C2CCC2)c1 [Example 330, 3-(N-(5-cyano-2-(piperidin-1-yl)phenyl)sulfamoyl)-4-cyclobutylbenzoic acid] | < 500
CS(=O)(=O)c1cc(NS(=O)(=O)c2cc(C(=O)O)ccc2C2CC2)c(N2CCCCC2)cc1F [Example 331, 4-cyclopropyl-3-(N-(4-fluoro-5-(methylsulfonyl)-2-(piperidin-1-yl)phenyl)sulfamoyl)benzoic acid] | < 500
O=C(O)c1ccc(C2CC2)c(S(=O)(=O)Nc2cc(-n3cnnn3)c(F)cc2N2CCCCC2)c1 [Example 333, 4-cyclopropyl-3-(N-(4-fluoro-2-(piperidin-1-yl)-5-(tetrazol-1-yl)phenyl)sulfamoyl)benzoic acid] | < 500

Continued, values first:

IC50 [nM] | SMILES
< 500 | CCc1ccc(C(=O)O)cc1S(=O)(=O)Nc1cc(-c2cnoc2)ccc1N1CCCCC1 [Example 297, 4-ethyl-3-(N-(5-(isoxazol-4-yl)-2-(piperidin-1-yl)phenyl)sulfamoyl)benzoic acid]
< 500 | CCc1ccc(C(=O)O)cc1S(=O)(=O)Nc1cc(-c2c[nH]nn2)ccc1N1CCCCC1 [Example 298, 4-ethyl-3-(N-(2-(piperidin-1-yl)-5-(1,2,3-triazol-4-yl)phenyl)sulfamoyl)benzoic acid]
< 500 | CCc1ccc(C(=O)O)cc1S(=O)(=O)Nc1cc(-c2nnco2)ccc1N1CCCCC1 [Example 299]
< 500 | CCc1ccc(C(=O)O)cc1S(=O)(=O)Nc1cc(-c2ccnnc2)ccc1N1CCCCC1 [Example 302, 4-ethyl-3-(N-(2-(piperidin-1-yl)-5-(pyridazin-4-yl)phenyl)sulfamoyl)benzoic acid]
< 500 | CCc1ccc(C(=O)O)cc1S(=O)(=O)Nc1cc(S(C)(=O)=O)ccc1N1CCC(F)(F)CC1 [Example 308, 3-(N-(2-(4,4-difluoropiperidin-1-yl)-5-(methylsulfonyl)phenyl)sulfamoyl)-4-ethylbenzoic acid]
< 500 | CS(=O)(=O)c1ccc(N2CCC(F)(F)CC2)c(NS(=O)(=O)c2cc(C(=O)O)ccc2C2CC2)c1 [Example 309, 4-cyclopropyl-3-(N-(2-(4,4-difluoropiperidin-1-yl)-5-(methylsulfonyl)phenyl)sulfamoyl)benzoic acid]
< 500 | N#Cc1ccc(N2CCC[C@@H](F)C2)c(NS(=O)(=O)c2cc(C(=O)O)ccc2C2CC2)c1 [Example 312, I-3-(N-(5-cyano-2-(3-fluoropiperidin-1-yl)phenyl)sulfamoyl)-4-cyclopropylbenzoic acid]
< 500 | CCc1ccc(C(=O)O)cc1S(=O)(=O)Nc1cc(C#N)ccc1N1CCC(F)CC1 [Example 318, 3-(N-(5-cyano-2-(4-fluoropiperidin-1-yl)phenyl)sulfamoyl)-4-ethylbenzoic acid]
< 500 | CS(=O)(=O)c1ccc(N2CCCC(F)(F)C2)c(NS(=O)(=O)c2cc(C(=O)O)ccc2C2CC2)c1 [Example 319, 4-cyclopropyl-3-(N-(2-(3,3-difluoropiperidin-1-yl)-5-(methylsulfonyl)phenyl)sulfamoyl)benzoic acid]
< 500 | O=C(O)c1ccc(C2CC2)c(S(=O)(=O)Nc2cc(-n3cnnn3)ccc2N2CCCCC2)c1 [Example 323, 4-cyclopropyl-3-(N-(2-(piperidin-1-yl)-5-(tetrazol-1-yl)phenyl)sulfamoyl)benzoic acid]
< 500 | O=C(O)c1ccc(C2CC2)c(S(=O)(=O)Nc2cc(-n3cnnn3)ccc2N2CC(O)C2)c1 [Example 325, 4-cyclopropyl-3-(N-(2-(3-hydroxyazetidin-1-yl)-5-(tetrazol-1-yl)phenyl)sulfamoyl)benzoic acid]
< 500 | CS(=O)(=O)c1cc(NS(=O)(=O)c2cc(C(=O)O)ccc2C2CC2)c(N2CCCCC2)cc1Cl [Example 332, 3-(N-(4-chloro-5-(methylsulfonyl)-2-(piperidin-1-yl)phenyl)sulfamoyl)-4-cyclopropylbenzoic acid]
< 500 | O=C(O)c1ccc(C2CC2)c(S(=O)(=O)Nc2cc(-n3cnnn3)c(Cl)cc2N2CCCCC2)c1 [Example 334, 3-(N-(4-chloro-2-(piperidin-1-yl)-5-(tetrazol-1-yl)phenyl)sulfamoyl)-4-cyclopropylbenzoic acid]
